Legend:
[1] = test system: EGF receptors exposed on KB cells; test: competitive radioimmunoassay with 125I 108 monoclonal antibody on KB cells; type: binding, human
Experimental: The cells were then washed, solubilized in 0.5N NaOH and their radioactivity was determined in a counter (Kontron, Switzerland). Non-specific binding was determined by the addition of 100-fold excess of unlabelled monoclonal antibody.

KB cells = test: colony inhibition assay of KB cells; type: cell-based, human
Experimental: KB cells were seeded in petri dishes (50×15 mm^2, NUNC) at a concentration of 2×10^2 cells per dish. […] On the sixth day cultures were fed with fresh medium containing the above ingredients. On the 15th day the cultures were washed with PBS, fixed with 4% v/v formaldehyde in PBS for 15 min. and stained with hematoxylin. Number of formed colonies (25 cells) was then determined.

With epidermal growth factor [EGF] the “maximal level of competition with binding of the antibody to the receptor” value [1] was “about 70%”, the “size of KB cell colonies” value (KB cells; EGF) was “increase in the size of KB cell colonies” and the “number of colonies compared to cells incubated in absence of growth factor” value (KB cells; EGF 160 nM, 15 days after seeding) was 150%.

From US6217866A, “Monoclonal antibodies specific to human epidermal growth factor receptor and therapeutic methods employing same” (Rhone-Poulenc Rorer International (Holdings), Inc., priority 1995, dated 2001)
